In patent US20090149417A1, “Methods and compositions for the treatment of cancer using benzopyrone-type PARP inhibitors” (priority 2007, published 2009):
Like-named read-outs stand apart in the source and are kept apart here.

How the values were obtained:
PANC-1 = assay: BrdU chemiluminescent cell proliferation assay; type: cell-based, human; details: for IC50: Homo sapiens, PANC-1, 72 h, 72 hour treatment
Procedure: (§1) Test Agents—Cells are treated 24 hours after plating (Day 1) with vehicle or test agents at concentrations of 0.1 μM, 0.3 μM, 1 μM, 3 μM, 10 μM, 30 μM and 100 μM.
(§2) Tumor Cell Lines—Tumor cell lines (Table 1) are obtained from the American Type Cell Collection (ATCC, Rockville, Md.) or NCI-DCTD Tumor Repository (Bethesda, Md.) and maintained in proper growth media supplemented with 10% fetal bovine serum (FBS, NovaTech), and are maintained in specified growth media. Cells are propagated at 37° C. in a humidified atmosphere containing 5% carbon dioxide.
(§3) Cell proliferation assay—Cell proliferation is determined using BrdU chemiluminescent assay, which measures incorporation of 5-bromo-2′-deoxyuridine (BrdU) into the genomic DNA of proliferating cells. Briefly, cells are added with BrdU for 4 hours, during which time it incorporates into the DNA of dividing cells in place of thymidine. Following labeling, cells are fixed and DNA denatured in one step by adding a FixDenat® denaturizing solution. After removing FixDenat, an anti-BrdU-peroxidase conjugated antibody is added, which binds to BrdU incorporated into newly-synthesized cellular DNA. Following antibody incubation, cells are washed 3 times with PBS and subjected to luminescent analysis. The reaction product is quantified by measuring light emission using a scanning multi-well luminometer (luminescence ELISA reader.)
(§4) Experimental Design—Tumor cells (Table 1) are grown to 70% confluency, trypsinized, counted and seeded in 96 well flat-bottom plates at final concentrations of 7.5×103-3×10^4 cells/well (Day 0); treatment with IIIg begins on Day 1 and continues for 68 hours (Table 2). Doses for both compounds range between […] and 100 μM. At the 68 hour time point, viable cell number is measured by BrdU assay as described above. Experiments are repeated at least twice at the same doses to determine inhibition of cell proliferation. Results from these studies are used to calculate an IC50 value (drug concentration that results in half-maximal response) for IIIg in each line.
(§5) For single studies, data from each experiment is collected and expressed as % Inhibition of Cell Proliferation (% ICP) using the following calculation.
(§6) % ICP=100%×[(1−(RLUtest/RLUvehicle)]
(§7) Where RLUtest is the relative light unit of the tested sample, and RLUvehicle is the relative light unit of the vehicle in which the drug is dissolved. An IC50 value is calculated from % ICP (PRISM® GraphPad software) using the formula:
(§8) y=min+(max−min)/(1+10^(Log(IC50)−x)×Hillslope)
(§9) Where (x) is the logarithm of agonist concentration, (y) is the response, and (min) and (max) are the variable lower and upper plateaus, respectively. The variable Hillslope characterizes the slope of the curve at its midpoint. The IC50 is the drug concentration for y halfway between min and max.

PC-3 = assay: BrdU chemiluminescent cell proliferation assay; type: cell-based, human; details: for IC50: Homo sapiens, PC-3, 72 h, 72 hour treatment
Procedure: as §1, §2, §3, §4, §5, §6, §7, §8, §9

MDA-MB-231 = assay: BrdU chemiluminescent cell proliferation assay; type: cell-based, human; details: for IC50: Homo sapiens, MDA-MB-231, 72 h, 72 hour treatment
Procedure: as §1, §2, §3, §4, §5, §6, §7, §8, §9

MX-1 = assay: BrdU chemiluminescent cell proliferation assay; type: cell-based, human; details: for IC50: Homo sapiens, MX1, 72 hour treatment
Procedure: as §1, §2, §3, §4, §5, §6, §7, §8, §9

NIH: OVCAR-3 = assay: BrdU chemiluminescent cell proliferation assay; type: cell-based, human; details: for IC50: Homo sapiens, OVCAR-3, 72 h, 72 hour treatment
Procedure: as §1, §2, §3, §4, §5, §6, §7, §8, §9

malignant cancer cells = details: malignant versus nonmalignant cells; Kirsten E, Kun E, Int J Mol Med 2000; cited from earlier work
[1] = mean of Exp1 and Exp2, read-out: Mean IC50

O=c1ccc2c(I)c([N+](=O)[O-])ccc2o1 [IIIg, 5-iodo-6-nitro-benzopyrone]
IC50 (PANC-1; Exp1, read-out: IC50): 22 µM
IC50 (PANC-1; Exp2, read-out: IC50): 27 µM
IC50 (PANC-1; [1]): 24.5 µM
Mean Maximum % Response (PANC-1; Max Concentration 100 μM): 99%
IC50 (PC-3; Exp1, read-out: IC50): 22 µM
IC50 (PC-3; Exp2, read-out: IC50): 25.3 µM
IC50 (PC-3; [1]): 23.7 µM
Mean Maximum % Response (PC-3; Max Concentration 100 μM): 100%
IC50 (MDA-MB-231; Exp1, read-out: IC50): 24 µM
IC50 (MDA-MB-231; Exp2, read-out: IC50): 24.3 µM
IC50 (MDA-MB-231; [1]): 24.2 µM
Mean Maximum % Response (MDA-MB-231; Max Concentration 100 μM): 99%
IC50 (MX-1; Exp2, read-out: IC50): 27 µM
IC50 (MX-1; [1]): 27 µM
Mean Maximum % Response (MX-1; Max Concentration 100 μM): 99%
IC50 (NIH: OVCAR-3; Exp1, read-out: IC50): 30.4 µM
IC50 (NIH: OVCAR-3; Exp2, read-out: IC50): 29.6 µM
IC50 (NIH: OVCAR-3; [1]): 30 µM
Mean Maximum % Response (NIH: OVCAR-3; Max Concentration 100 μM): 98%
Selective cytotoxicity (malignant cancer cells): selective cytotoxicity upon malignant cancer cells but not upon nonmalignant cells
